Laboratory results as given in ChEMBL document CHEMBL1125752, “Relationship between tissue selectivity and lipophilicity for inhibitors of HMG-CoA reductase” (J Med Chem, 1991).

Experiments:
[1] = IC50 ratio evaluated as the IC50 values of spleen to that of liver.; format: functional; set-up: reference not given here
[2] = organism: Rattus norvegicus; test: Incorporation of [14C]- acetate into sterols measured in rat liver.; format: functional, organism-based
[3] = target: T1, 3-hydroxy-3-methylglutaryl-coenzyme A reductase (Rattus norvegicus, UniProt P51639); test: Ability to inhibit microsomal preparation of HMG-CoA reductase in rat liver.
T1 sequence (P51639 whole entry): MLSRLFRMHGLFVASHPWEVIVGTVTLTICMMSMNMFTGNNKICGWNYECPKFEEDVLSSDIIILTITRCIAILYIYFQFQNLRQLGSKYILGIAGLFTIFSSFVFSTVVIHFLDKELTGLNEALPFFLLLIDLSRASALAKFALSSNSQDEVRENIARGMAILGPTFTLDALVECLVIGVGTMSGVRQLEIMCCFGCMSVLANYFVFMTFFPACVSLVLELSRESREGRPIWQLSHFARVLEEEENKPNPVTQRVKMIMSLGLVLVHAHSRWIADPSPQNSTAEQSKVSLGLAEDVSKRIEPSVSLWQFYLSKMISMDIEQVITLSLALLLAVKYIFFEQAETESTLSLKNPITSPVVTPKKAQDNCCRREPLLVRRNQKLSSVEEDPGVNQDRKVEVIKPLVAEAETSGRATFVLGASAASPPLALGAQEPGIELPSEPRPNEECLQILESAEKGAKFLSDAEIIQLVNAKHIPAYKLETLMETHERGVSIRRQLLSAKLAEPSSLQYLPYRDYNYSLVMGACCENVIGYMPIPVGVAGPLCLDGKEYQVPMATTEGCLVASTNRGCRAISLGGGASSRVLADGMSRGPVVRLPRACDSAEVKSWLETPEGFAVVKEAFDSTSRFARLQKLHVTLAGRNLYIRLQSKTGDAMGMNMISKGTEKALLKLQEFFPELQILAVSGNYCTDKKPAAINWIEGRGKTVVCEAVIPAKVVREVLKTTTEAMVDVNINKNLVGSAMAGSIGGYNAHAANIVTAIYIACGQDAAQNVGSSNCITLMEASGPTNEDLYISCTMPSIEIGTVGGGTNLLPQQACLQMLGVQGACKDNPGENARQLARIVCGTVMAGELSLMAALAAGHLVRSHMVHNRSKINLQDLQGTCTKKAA

[4] = IC50 ratio evaluated as the IC50 values of testis to that of liver.; format: functional; set-up: reference not given here
[5] = organism: Rattus norvegicus; test: Incorporation of [14C]- acetate into sterols measured in rat spleen.; format: functional, organism-based
[6] = organism: Rattus norvegicus; test: Incorporation of [14C]- acetate into sterols measured in rat testis.; format: functional, organism-based
[7] = organism: Rattus norvegicus; test: Compound was tested for its effect on the incorporation of [14C]- acetate into sterols measured rat liver.; format: functional, organism-based
[8] = organism: Rattus norvegicus; test: Compound was tested for its effect on the incorporation of [14C]- acetate into sterols measured rat testis.; format: functional, organism-based
[9] = organism: Rattus norvegicus; test: Compound was tested for its effect on the incorporation of [14C]- acetate into sterols measured rat spleen.; format: functional, organism-based

Structure (SMILES) | IC50 ratio [1] | IC50 [2] [nM] | IC50 [3] [nM] | IC50 ratio [4] | IC50 [5] [nM] | IC50 [6] [nM] | IC50 [7] [nM] | IC50 [8] [nM] | IC50 [9] [nM]
Cn1nnnc1C(/C=C/[C@@H](O)C[C@@H](O)CC(=O)[O-])=C(c1ccc(F)cc1)c1ccc(F)cc1.[Na+] | 14.6 | 108 | 13 | 5.9 | 1580 | 638 |  |  | 
CC(C)c1nn(-c2cnccn2)c(-c2ccc(F)cc2)c1/C=C/[C@@H](O)C[C@@H](O)CC(=O)[O-].[Na+] | 2 | 10 | 6.6 | 6.4 | 20 | 64 |  |  | 
CC(C)c1nn(-c2ccccc2)c(-c2ccc(F)cc2)c1/C=C/[C@@H](O)C[C@@H](O)CC(=O)[O-].[Na+] | 0.35 | 34 | 7.2 | 0.24 | 12 | 8 |  |  | 
Cc1cc(C)c(OC[C@@H](O)C[C@@H](O)CC(=O)[O-])c(C2CCCCCC2)c1.[Na+] | 0.02 | 5170 | 141 | 0.01 | 108 | 63 |  |  | 
CC(C)c1c(Br)c(Br)c(-c2ccc(F)cc2)n1CC[C@@H](O)C[C@@H](O)CC(=O)[O-].[Na+] | 0.05 | 2730 | 26 | 0.009 | 140 | 24 |  |  | 
Cc1ccc(-c2ccc(C(C)C)c(OC[C@@H](O)C[C@@H](O)CC(=O)[O-])c2-c2ccc(F)cc2)cc1.[Na+] | 0.06 | 6040 | 100 | 0.08 | 375 | 511 |  |  | 
CC(C)n1c(/C=C/C(O)CC(O)CC(=O)O)c(-c2ccc(F)cc2)c2ccccc21 (stereo unspecified) [FLUVASTATIN SODIUM] |  | 142 |  |  | 292 | 4 |  |  | 
CC[C@H](C)C(=O)O[C@H]1C[C@H](O)C=C2C=C[C@H](C)[C@H](CC[C@@H](O)C[C@@H](O)CC(=O)[O-])[C@H]21.[Na+] [PRAVASTATIN SODIUM] | 1.6 | 141 | 40 | 2.3 | 228 | 329 |  |  | 

The remaining molecules from weak to strong by IC50 [3], led by results:

IC50 ratio [1] | IC50 [2] [nM] | IC50 [3] [nM] | IC50 ratio [4] | IC50 [5] [nM] | IC50 [6] [nM] | IC50 [7] [nM] | IC50 [8] [nM] | IC50 [9] [nM] | Structure (SMILES)
0.02 | 6280 | 480 | 0.03 | 92 | 184 |  |  |  | CC(C)c1nc2ccc(Cl)cc2c(-c2ccc(F)cc2)c1/C=C/[C@@H](O)C[C@@H](O)CC(=O)[O-].[Na+]
0.17 | 28 | 13 | 0.14 | 5 | 4 |  |  |  | CC[C@H](C)C(=O)O[C@H]1C[C@H](C)C=C2C=C[C@H](C)[C@H](CC[C@@H]3C[C@@H](O)CC(=O)O3)[C@H]21
1.7 | 17 | 10 | 4.8 | 29 | 82 |  |  |  | CC(C)c1nn(-c2ccccn2)c(-c2ccc(F)cc2)c1/C=C/[C@@H](O)C[C@@H](O)CC(=O)[O-].[Na+]
14.8 |  | 9.4 | 39.9 |  |  | 18 | 718 | 266 | Cc1cc(-c2ccc(F)cc2)c(/C=C/[C@@H](O)C[C@@H](O)CC(=O)[O-])c(C(C)C)[n+]1[O-].[Na+]
0.13 | 71 | 7.7 | 0.24 |  | 17 |  |  | 9 | Cc1cc(-c2ccc(F)cc2)c(/C=C/[C@@H](O)C[C@@H](O)CC(=O)[O-])c(C(C)C)n1.[Na+]
0.01 | 8070 | 2 | 0.002 | 77 | 16 |  |  |  | CC(C)c1nc(-c2ccccc2)cc(-c2ccc(F)cc2)c1/C=C/[C@@H](O)C[C@@H](O)CC(=O)[O-].[Na+]
